Reference: ChEMBL document CHEMBL4823315 (Bioorg Med Chem Lett, 2021)
≈ marks a conversion by molar mass, not a printed value.

Legend:
Cytochrome P450 1A2 = molecular target: T1, Cytochrome P450 1A2 (Homo sapiens, UniProt P05177); experiment: Inhibition of CYP1A2 (unknown origin); assay type: ADME
T1 sequence (P05177 whole entry): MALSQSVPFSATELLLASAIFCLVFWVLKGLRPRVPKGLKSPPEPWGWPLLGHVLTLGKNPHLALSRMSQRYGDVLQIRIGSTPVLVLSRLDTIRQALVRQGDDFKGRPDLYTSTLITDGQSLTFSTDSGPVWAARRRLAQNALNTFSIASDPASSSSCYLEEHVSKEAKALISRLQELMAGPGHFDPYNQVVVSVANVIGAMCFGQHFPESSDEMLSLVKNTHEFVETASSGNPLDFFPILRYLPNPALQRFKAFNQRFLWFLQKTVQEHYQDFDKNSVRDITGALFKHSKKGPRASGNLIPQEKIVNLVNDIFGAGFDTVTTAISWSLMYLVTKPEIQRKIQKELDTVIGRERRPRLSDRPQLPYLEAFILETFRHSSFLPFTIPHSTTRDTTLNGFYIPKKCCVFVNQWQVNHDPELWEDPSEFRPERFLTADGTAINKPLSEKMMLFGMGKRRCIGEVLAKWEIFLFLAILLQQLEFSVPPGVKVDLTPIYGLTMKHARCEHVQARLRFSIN

[1] = Apparent permeability across apical to basal side in human Caco-2 cells; assay type: ADME, cell-based
[2] = molecular target: Voltage-gated inwardly rectifying potassium channel KCNH2 (Homo sapiens, UniProt Q12809); experiment: Inhibition of human ERG by patch clamp assay
Voltage-gated inwardly rectifying potassium channel KCNH2, sequence (Q12809 whole entry): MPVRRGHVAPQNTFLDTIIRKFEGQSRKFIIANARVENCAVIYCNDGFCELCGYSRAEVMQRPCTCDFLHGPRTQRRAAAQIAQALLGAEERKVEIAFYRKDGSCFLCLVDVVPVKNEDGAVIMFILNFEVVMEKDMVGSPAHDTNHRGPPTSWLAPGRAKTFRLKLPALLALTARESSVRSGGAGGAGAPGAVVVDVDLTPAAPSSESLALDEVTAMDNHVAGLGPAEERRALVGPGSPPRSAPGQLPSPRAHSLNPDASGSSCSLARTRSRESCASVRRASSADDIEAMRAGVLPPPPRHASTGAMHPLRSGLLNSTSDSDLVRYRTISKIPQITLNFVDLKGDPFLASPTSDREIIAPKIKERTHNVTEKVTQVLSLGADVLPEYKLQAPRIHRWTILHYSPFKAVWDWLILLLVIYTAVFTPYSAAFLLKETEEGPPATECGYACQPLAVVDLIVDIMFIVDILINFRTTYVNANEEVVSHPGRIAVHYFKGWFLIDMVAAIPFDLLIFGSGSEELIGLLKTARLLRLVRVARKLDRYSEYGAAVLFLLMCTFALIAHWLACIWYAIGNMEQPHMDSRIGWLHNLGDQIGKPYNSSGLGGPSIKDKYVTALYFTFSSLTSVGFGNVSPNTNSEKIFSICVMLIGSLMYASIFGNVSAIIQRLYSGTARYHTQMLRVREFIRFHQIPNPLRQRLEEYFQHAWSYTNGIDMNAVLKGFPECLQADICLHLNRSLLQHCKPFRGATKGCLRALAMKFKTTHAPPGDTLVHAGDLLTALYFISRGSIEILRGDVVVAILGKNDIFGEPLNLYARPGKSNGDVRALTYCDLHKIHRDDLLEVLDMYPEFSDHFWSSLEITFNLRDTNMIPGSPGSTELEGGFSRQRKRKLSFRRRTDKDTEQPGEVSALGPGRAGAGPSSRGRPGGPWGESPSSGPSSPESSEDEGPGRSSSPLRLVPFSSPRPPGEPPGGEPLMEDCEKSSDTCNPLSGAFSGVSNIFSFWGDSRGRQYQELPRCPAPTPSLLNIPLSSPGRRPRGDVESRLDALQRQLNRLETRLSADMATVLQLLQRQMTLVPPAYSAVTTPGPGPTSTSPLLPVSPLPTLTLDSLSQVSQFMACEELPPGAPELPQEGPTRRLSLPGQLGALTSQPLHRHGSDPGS

Cytochrome P450 2B6 = molecular target: T2, Cytochrome P450 2B6 (Homo sapiens, UniProt P20813); experiment: Inhibition of CYP2B6 (unknown origin); assay type: ADME
T2 sequence (P20813 whole entry): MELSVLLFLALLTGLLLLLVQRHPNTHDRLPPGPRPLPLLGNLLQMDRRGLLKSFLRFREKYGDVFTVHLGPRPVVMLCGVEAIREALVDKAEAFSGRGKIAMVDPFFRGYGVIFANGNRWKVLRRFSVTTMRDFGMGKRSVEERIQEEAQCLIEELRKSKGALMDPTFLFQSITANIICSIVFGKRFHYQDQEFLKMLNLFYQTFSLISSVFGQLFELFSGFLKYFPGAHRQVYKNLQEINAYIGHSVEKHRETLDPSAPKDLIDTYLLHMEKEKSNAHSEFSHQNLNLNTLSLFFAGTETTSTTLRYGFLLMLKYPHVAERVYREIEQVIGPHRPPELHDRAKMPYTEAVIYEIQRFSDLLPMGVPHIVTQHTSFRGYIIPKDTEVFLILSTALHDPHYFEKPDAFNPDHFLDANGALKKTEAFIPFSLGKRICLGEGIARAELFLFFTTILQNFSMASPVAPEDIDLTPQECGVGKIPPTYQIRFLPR

Cytochrome P450 2C8 = molecular target: T3, Cytochrome P450 2C8 (Homo sapiens, UniProt P10632); experiment: Inhibition of CYP2C8 (unknown origin); assay type: ADME
T3 sequence (P10632 whole entry): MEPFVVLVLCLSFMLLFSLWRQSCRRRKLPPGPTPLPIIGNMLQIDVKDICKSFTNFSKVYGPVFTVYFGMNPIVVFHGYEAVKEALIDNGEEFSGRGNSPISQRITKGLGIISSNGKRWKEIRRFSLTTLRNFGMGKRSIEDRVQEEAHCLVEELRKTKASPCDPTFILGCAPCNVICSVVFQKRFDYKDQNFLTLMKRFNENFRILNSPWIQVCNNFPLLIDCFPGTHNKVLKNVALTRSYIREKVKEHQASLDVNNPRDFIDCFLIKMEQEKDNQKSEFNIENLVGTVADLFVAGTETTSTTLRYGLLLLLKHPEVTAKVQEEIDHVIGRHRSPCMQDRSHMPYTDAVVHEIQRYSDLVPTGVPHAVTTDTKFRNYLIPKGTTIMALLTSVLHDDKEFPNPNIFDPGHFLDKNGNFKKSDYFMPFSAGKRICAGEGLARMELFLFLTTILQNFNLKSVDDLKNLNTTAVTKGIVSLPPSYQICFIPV

Cytochrome P450 2D6 = Cytochrome P450 2D6 (Homo sapiens, UniProt P10635); experiment: Inhibition of CYP2D6 (unknown origin); assay type: ADME
Cytochrome P450 2D6, sequence (P10635 whole entry): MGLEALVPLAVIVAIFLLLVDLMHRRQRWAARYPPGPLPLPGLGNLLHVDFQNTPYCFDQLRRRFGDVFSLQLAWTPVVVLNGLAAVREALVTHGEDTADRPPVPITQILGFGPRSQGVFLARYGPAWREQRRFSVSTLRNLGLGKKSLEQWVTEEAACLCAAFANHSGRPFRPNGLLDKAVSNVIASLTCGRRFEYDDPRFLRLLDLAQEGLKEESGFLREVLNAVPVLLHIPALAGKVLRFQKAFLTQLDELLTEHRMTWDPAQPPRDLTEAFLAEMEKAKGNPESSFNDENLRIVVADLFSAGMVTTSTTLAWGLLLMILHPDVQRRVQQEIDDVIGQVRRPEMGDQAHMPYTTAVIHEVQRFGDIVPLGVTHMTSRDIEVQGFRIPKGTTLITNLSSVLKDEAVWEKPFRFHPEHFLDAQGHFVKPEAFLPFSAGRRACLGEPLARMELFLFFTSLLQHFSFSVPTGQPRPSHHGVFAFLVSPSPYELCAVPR

[3] = Intrinsic clearance in mouse liver microsomes; assay type: ADME, Microsome; conditions: read-out: CLH
[4] = Efflux ratio of apparent permeability in human Caco-2 cells; assay type: ADME, cell-based
[5] = Thermodynamic solubility of the compound at pH 1.2; assay type: physicochemical; conditions: buffer, read-out: Therm_solubility
[6] = AUC in CD-1 mouse at 5 mg/kg, po; assay type: ADME, organism-based; design: dose 5 mg/kg; conditions: in vivo
[7] = AUC in CD-1 mouse at 5 mg/kg, iv; assay type: ADME, organism-based; design: dose 5 mg/kg; conditions: in vivo
[8] = Cmax in CD-1 mouse at 5 mg/kg, po; assay type: ADME, organism-based; design: route oral, dose 5 mg/kg; conditions: in vivo
[9] = Cmax in CD-1 mouse at 5 mg/kg, iv; assay type: ADME, organism-based; design: route intravenous, dose 5 mg/kg; conditions: in vivo
[10] = Clearance in CD-1 mouse at 5 mg/kg, po or 5 mg/kg, iv; assay type: ADME, organism-based; conditions: in vivo
[11] = Oral bioavailability in CD-1 mouse at 5 mg/kg; assay type: ADME, organism-based; conditions: in vivo
[12] = Clearance in Sprague-Dawley rat at 5 mg/kg, po or 5 mg/kg, iv; assay type: ADME, organism-based; conditions: in vivo
[13] = Clearance in Beagle dog at 0.5 mg/kg, po or 0.2 mg/kg, iv; assay type: ADME, organism-based, Canis lupus familiaris; conditions: in vivo
[14] = Half life in Sprague-Dawley rat at 5 mg/kg, po or 5 mg/kg, iv; assay type: ADME, organism-based; conditions: in vivo
[15] = Half life in Beagle dog at 0.5 mg/kg, po or 0.2 mg/kg, iv; assay type: ADME, organism-based, Canis lupus familiaris; conditions: in vivo
[16] = Oral bioavailability in Beagle dog at 0.5 mg/kg; assay type: ADME, organism-based, Canis lupus familiaris; conditions: in vivo
[17] = Cmax in Beagle dog at 0.5 mg/kg, po; assay type: ADME, organism-based, Canis lupus familiaris; design: route oral, dose 0.5 mg/kg; conditions: in vivo
[18] = Toxicity in mouse xenografted with human MDA-MB-436 cells assessed as loss of body weight at 200 mg/kg, po administered qd measured after 15 days; assay type: organism-based; conditions: in vivo, 360 h, time 15 day
[19] = Toxicity in mouse xenografted with human MDA-MB-436 cells assessed as loss of body weight at 25 to 75 mg/kg, po administered qd measured for 28 days; assay type: organism-based; conditions: in vivo, 672 h, dose 25-75 mg/kg, time 28 day
MDA-MB-436 [20] = experiment: Antitumor activity against human MDA-MB-436 cells xenografted in mouse assessed as tumor growth inhibition at 25 mg/kg, po qd and measured for 28 days; assay type: functional; conditions: MDA-MB-436, po, 672 h, time 28 day, read-out: TGI
MDA-MB-436 [21] = experiment: Antitumor activity against human MDA-MB-436 cells xenografted in mouse assessed as tumor growth inhibition at 75 mg/kg, po qd and measured for 28 days; assay type: functional; conditions: MDA-MB-436, po, 672 h, time 28 day, read-out: TGI
[22] = In vivo Inhibition of Akt/p70S6K in mouse xenografted with human MDA-MB-436 cells assessed as reduction in S6 phosphorylation in tumor at 25 to 200 mg/kg, po measured after 4 to 8 hrs; assay type: functional; conditions: dose 25-200 mg/kg, time 4-8 hrs
[23] = In vivo Inhibition of Akt/p70S6K in mouse xenografted with human MDA-MB-436 cells assessed as reduction in S6 phosphorylation in tumor at 75 mg/kg, po measured after 24 hrs; assay type: functional; conditions: MDA-MB-436, po
[24] = Toxicity in po dosed mouse xenografted with human MDA-MB-436 cells administered daily; assay type: organism-based; conditions: in vivo

NC(=O)c1c(N)ncnc1N1CCC(c2nc(-c3ccc(F)c(C(F)(F)F)c3)cn2CCN2CCC2)CC1 showed an IC50 (Cytochrome P450 1A2) greater than 20 µM, a Papp A→B [1] of 5.3 ×10⁻⁶ cm/s and an IC50 [2] of 17.4 µM. For the same compound, the IC50 (Cytochrome P450 2B6) was greater than 20 µM, the IC50 (Cytochrome P450 2C8) was greater than 20 µM and the IC50 (Cytochrome P450 2D6) was greater than 20 µM. For the same compound, the microsomal CLint [3] was 11 µL/min/mg, the efflux ratio [4] was 7.9 and the solubility thermodynamic [5] was 2960 µg/mL (≈ 5.56 mM). It also gave an AUC [6] of 417 ng·h/mL, an AUC [7] of 662 ng·h/mL and a Cmax [8] of 57 ng/mL. It also gave a Cmax [9] of 163 ng/mL, a clearance [10] of 25 mL/min/kg and a bioavailability [11] of 63%. For the same compound, the clearance [12] was 312 mL/min/kg, the clearance [13] was 4.67 mL/min/kg and the half-life [14] was 1.5 h. The half-life [15] was 19 h, the bioavailability [16] was 65% and the Cmax [17] was 67.8 ng/mL. The Activity [18] was greater than 5%, the Activity [19] was less than 5% and the inhibition in vivo at 25 mg/kg (MDA-MB-436 [20]) was 81%. For the same compound, the inhibition in vivo at 75 mg/kg (MDA-MB-436 [21]) was 100%, the “inhibition (INH)” value [22] was greater than 95% and the inhibition in vivo at 75 mg/kg [23] was 87%. The MTD [24] was no more than 200 mg/kg.
